Values of other authors, collected in patent US6969532B2, “Compounds inhibiting COX-2 and iNOS promoter activities” (priority 2000, dated 2005).

Tested on: human adenomatous polyposis
Conditions: randomized clinical trial

Cc1ccc(-c2cc(C(F)(F)F)nn2-c2ccc(S(N)(=O)=O)cc2)cc1 [Celebrex]
extent of polyp reduction: about 30%
